Data from patent publication US20170280720A1, “ARGININE […] INHIBITORS AND USES THEREOF” (EPIZYME, INC., priority 2014, published 2017).

Molecular target: T1, Human CARM1 (PRMT4) (Homo sapiens, UniProt Q86X55)
T1 construct: Flag-CARM1-His; made in house; host or cells: HEK 293F cells (BacMam baculovirus, pFastBacMam)
T1 sequence (Q86X55 2-585 isoform Q86X55-1): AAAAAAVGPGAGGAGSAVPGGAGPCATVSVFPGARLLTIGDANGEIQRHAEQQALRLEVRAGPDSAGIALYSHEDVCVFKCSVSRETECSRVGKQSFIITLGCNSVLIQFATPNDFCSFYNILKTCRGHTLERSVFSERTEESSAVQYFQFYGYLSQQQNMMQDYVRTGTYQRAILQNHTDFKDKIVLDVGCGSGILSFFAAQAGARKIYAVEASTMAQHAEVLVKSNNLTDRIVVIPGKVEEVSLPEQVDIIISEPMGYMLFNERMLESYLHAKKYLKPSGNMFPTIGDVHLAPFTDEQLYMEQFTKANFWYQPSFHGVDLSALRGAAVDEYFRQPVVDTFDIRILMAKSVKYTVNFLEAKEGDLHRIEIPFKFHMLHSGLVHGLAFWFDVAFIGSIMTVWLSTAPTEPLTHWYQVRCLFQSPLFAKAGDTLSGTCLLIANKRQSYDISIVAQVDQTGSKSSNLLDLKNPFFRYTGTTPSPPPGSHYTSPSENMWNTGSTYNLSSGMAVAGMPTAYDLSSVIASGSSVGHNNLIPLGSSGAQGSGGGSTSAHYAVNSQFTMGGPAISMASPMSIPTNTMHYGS
Assay: CARM1 biochemical assay (3H-SAM Flashplate, peptide substrate)
Details: read-out: CARM1_ IC50
Procedure, shortened: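 FLAG/His-tagged human CARM1 (isoform 1, Δ539-561, baculovirus-expressed), 0.25 nM, preincubated 30 min at room temperature with compound (2% DMSO) in 20 mM Bicine pH 7.6, then reacted with 30 nM 3H-SAM and 250 nM biotinylated H3 16-30 peptide (R26 monomethyl). Stopped with 300 uM cold SAM; labelled peptide captured on streptavidin Flashplate; % inhibition versus DMSO and 1 mM SAH controls fitted to a 4- or 3-parameter curve.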

Structure (SMILES) | IC50 [µM]
CC(C)n1ncc2c(C(=O)NCC3CCN(C)CC3)cc(-c3cccc(CN(C)CCN(C)C)c3)nc21 [Compound 162] | 0.0916
Cc1cc2cc(-c3ccc(CNCCN)cc3)ccc2[nH]1 [Compound 141] | 5.81
CN(CCN)Cc1ccc(-c2ccc3ncn(-c4ccccc4)c3c2)cc1 [Compound 19] | 12.6
CNCCN(C)Cc1cccc(-c2cc(NC3CC3)c3cnn(C(C)C)c3n2)c1 [Compound 11] | 0.0328
CN(CCN)Cc1cccc(-c2nc(NCc3cccnc3)c3cnn(C4CC4)c3n2)c1 [Compound 40] | 0.00714
CN(CCN)Cc1cccc(-c2cc(C(=O)NC3CCOCC3)c3cnn(C4CC4)c3n2)c1 [Compound 142] | 0.00943
CNCCN(C)Cc1cccc(-c2cc(N)c3cnn(C(C)C)c3n2)c1 [Compound 151] | 0.0921
CC(C)n1ncc2c(C(=O)N3CCCCC3)cc(-c3cccc(CNCCN)c3)nc21 [Compound 153] | 0.195
CN(CCN)Cc1cccc(-c2cc(C(=O)NC3CCOCC3)c3cnn(CC(F)(F)F)c3n2)c1 [Compound 144] | 0.0267
CC(C)n1ncc2c(C(=O)NCc3ccccc3)cc(-c3cccc(CNCCN)c3)nc21 [Compound 155] | 0.115
CNCCN(C)Cc1cccc(-c2cc(NC(=O)NC3CCOCC3)c3cnn(C(C)C)c3n2)c1 [Compound 133] | 0.012
CC(C)n1cnc2cc(-c3ccc(CN(C)CCN)cc3)ccc21 [Compound 46] | 10
CNCCN(C)Cc1cccc(-c2cnc3c(c2)OCC(=O)N3)c1 [Compound 355] | 10
CNCCN(C)Cc1cccc(-c2ccc3c(c2)ncn3C(C)C)c1 [Compound 36] | 15.8
CNCCN(C)Cc1cccc(-c2cc(C(=O)N[C@@H](C)c3ccccc3)c3cnn(C(C)C)c3n2)c1 [Compound 44] | 0.0186
CNCCN(C)Cc1cccc(-c2cc(C(=O)NC3CCOCC3)c3cnn(C4CCC4)c3n2)c1 [Compound 29] | 0.0924

Next, values leading:

IC50 [µM] | Structure (SMILES)
0.175 | CC(C)n1ncc2c(C(=O)NCc3ccccc3F)cc(-c3cccc(CNCCN)c3)nc21 [Compound 159]
0.00842 | CNCCN(C)Cc1cccc(-c2nc(NCc3cc(C)nn3C)c3cnn(C4CC4)c3n2)c1 [Compound 17]
0.161 | CC(C)n1ncc2c(N3CCOCC3)cc(-c3cccc(CN(C)CCNC4CC4)c3)nc21 [Compound 163]
0.0233 | CC(C)n1ncc2c(C(=O)NCc3c(F)cccc3F)cc(-c3cccc(CNCCN)c3)nc21 [Compound 168]
0.00356 | CN(CCN)Cc1cccc(-c2nc(NCc3nccs3)c3cnn(C4CC4)c3n2)c1 [Compound 1]
0.0187 | CNCCN(C)Cc1cccc(-c2cc(C(=O)NCc3ccccc3F)c3cnn(C(C)C)c3n2)c1 [Compound 38]
12.9 | CS(=O)(=O)N1CCC(Cn2cnc3ccc(-c4ccc(CNCCN)cc4)cc32)CC1 [Compound 129]
4.92 | COc1cccc(Cc2nc3ccc(-c4ccc(CNCCN)cc4)cc3n2C(C)C)c1 [Compound 135]
0.264 | CNCCN(C)Cc1cccc(-c2cc(NS(C)(=O)=O)c3cnn(C(C)C)c3n2)c1 [Compound 170]
0.852 | CNCCN(C)Cc1cccc(-c2ccc3ncn(C4CCOCC4)c3c2)c1 [Compound 30]
31.7 | CC(C)n1cnc2ccc(-c3ccc(CNCCN)cc3)cc21 [Compound 166]
6.79 | CNCCN(C)Cc1cccc(-c2cnc3c(c2)c(Br)nn3CC2CCOCC2)c1 [Compound 39]
0.185 | CC(C)n1ncc2c(C(=O)N3CCc4ccccc4C3)cc(-c3cccc(CN(C)CCN)c3)nc21 [Compound 23]
0.0134 | CC(C)n1ncc2c(NC3CC3)cc(-c3cccc(CN(C)CCN)c3)nc21 [Compound 41]
0.358 | CNCCN(C)Cc1cccc(-c2cc(NS(=O)(=O)C(F)(F)F)c3cnn(C(C)C)c3n2)c1 [Compound 164]
10 | CNCCN(C)Cc1cccc(-c2ccc3c(c2)ncn3CCOC)c1 [Compound 34]
0.00583 | CN(CCN)Cc1cccc(-c2nc(NC3CCOCC3)c3cnn(C(C)(C)C)c3n2)c1 [Compound 18]
